According to article PMC5218480 (PLoS ONE, 2017):

System: MV-4-11 cells
Assay: Gene expression microarray analysis (Affymetrix PrimeView) and GSEA
Format: cell-based, human
Set-up: RFU PODN (11730768_x_at) / Fold change /veh PODN (11730768_x_at) / RFU LINC00158 (11744669_a_at) / Fold change /veh LINC00158 (11744669_a_at) / RFU DUSP10 (11751237_a_at) / Fold change /veh DUSP10 (11751237_a_at) / RFU ID3 (11757404_x_at) / Fold change /veh ID3 (11757404_x_at) / RFU PLEKHG5 (11737974_s_at) / Fold change /veh PLEKHG5 (11737974_s_at) / RFU LRRC4B (11730491_at) / Fold change /veh LRRC4B (11730491_at) / RFU GIMAP4 (11747438_a_at) / Fold change /veh GIMAP4 (11747438_a_at) / RFU KRT8 (11758183_x_at) / Fold change /veh KRT8 (11758183_x_at) / RFU CNN1 (11734310_a_at) / Fold change /veh CNN1 (11734310_a_at) / RFU VPS37D (11726825_at) / Fold change /veh VPS37D (11726825_at) / RFU C10orf10 (11716522_x_at) / Fold change /veh C10orf10 (11716522_x_at) / RFU KIR2DL2 /// KIR2DL4 /// KIR2DL5A /// KIR2DL5B /// KIR2DS1 /// KIR2DS2 /// KIR2DS3 /// KIR2DS4 /// KIR3DL3 /// KIR3DL3 /// KIR3DS1 (11738374_at) / Fold change /veh KIR2DL2 /// KIR2DL4 /// KIR2DL5A /// KIR2DL5B /// KIR2DS1 /// KIR2DS2 /// KIR2DS3 /// KIR2DS4 /// KIR3DL3 /// KIR3DL3 /// KIR3DS1 (11738374_at) / RFU C1QL1 (11718748_at) / Fold change /veh C1QL1 (11718748_at) / RFU TMPRSS4 (11747572_a_at) / Fold change /veh TMPRSS4 (11747572_a_at) / RFU HAMP (11756126_x_at) / Fold change /veh HAMP (11756126_x_at) / RFU RNFT2 (11725882_a_at) / Fold change /veh RNFT2 (11725882_a_at) / RFU NR4A2 (11747474_a_at) / Fold change /veh NR4A2 (11747474_a_at) / RFU ABCC12 (11746883_a_at) / Fold change /veh ABCC12 (11746883_a_at) / RFU TMEM136 (11760407_x_at) / Fold change /veh TMEM136 (11760407_x_at) / RFU CLDN22 /// WWC2 (11732394_at) / Fold change /veh CLDN22 /// WWC2 (11732394_at) / RFU HLA-DPB1 (11760878_x_at) / Fold change /veh HLA-DPB1 (11760878_x_at) / RFU SPINT1 (11716480_a_at) / Fold change /veh SPINT1 (11716480_a_at) / RFU GAP43 (11754022_s_at) / Fold change /veh GAP43 (11754022_s_at) / RFU A4GNT (11735810_at) / Fold change /veh A4GNT (11735810_at) / RFU PRB3 (11715151_x_at) / Fold change /veh PRB3 (11715151_x_at) / RFU TUBB4B (11761932_at) / Fold change /veh TUBB4B (11761932_at) / RFU CAPN14 (11732068_a_at) / Fold change /veh CAPN14 (11732068_a_at) / RFU TMCC2 (11721928_a_at) / Fold change /veh TMCC2 (11721928_a_at) / RFU IRGQ (11745062_a_at) / Fold change /veh IRGQ (11745062_a_at) / RFU FAM174B (11720279_a_at) / Fold change /veh FAM174B (11720279_a_at) / RFU TMPRSS4 (11748680_a_at) / Fold change /veh TMPRSS4 (11748680_a_at) / RFU FAM212B (11763350_a_at) / Fold change /veh FAM212B (11763350_a_at) / RFU PLEKHG5 (11743358_a_at) / Fold change /veh PLEKHG5 (11743358_a_at) / RFU ZSCAN30 (11745921_a_at) / Fold change /veh ZSCAN30 (11745921_a_at) / RFU CMKLR1 (11741424_a_at) / Fold change /veh CMKLR1 (11741424_a_at) / RFU LOC101060620 /// MAPK8IP1 (11723275_at) / Fold change /veh LOC101060620 /// MAPK8IP1 (11723275_at) / RFU SPTSSB (11747773_x_at) / Fold change /veh SPTSSB (11747773_x_at) / RFU PRSS12 (11739890_at) / Fold change /veh PRSS12 (11739890_at) / RFU BIN1 (11741810_x_at) / Fold change /veh BIN1 (11741810_x_at) / RFU WNT11 (11732464_a_at) / Fold change /veh WNT11 (11732464_a_at) / RFU C10orf10 (11716521_a_at) / Fold change /veh C10orf10 (11716521_a_at) / RFU C5orf56 (11738089_at) / Fold change /veh C5orf56 (11738089_at) / RFU CYB561 (11721691_x_at) / Fold change /veh CYB561 (11721691_x_at) / RFU ANKRD19P (11752326_a_at) / Fold change /veh ANKRD19P (11752326_a_at) / RFU OR2T12 /// OR2T33 /// OR2T8 (11738714_s_at) / Fold change /veh OR2T12 /// OR2T33 /// OR2T8 (11738714_s_at) / RFU VCAN (11748164_a_at) / Fold change /veh VCAN (11748164_a_at) / RFU JSRP1 (11732532_at) / Fold change /veh JSRP1 (11732532_at) / RFU KRTAP10-11 (11738290_x_at) / Fold change /veh KRTAP10-11 (11738290_x_at) / RFU MYO3A (11730013_a_at) / Fold change /veh MYO3A (11730013_a_at) / RFU EBF3 (11725865_a_at) / Fold change /veh EBF3 (11725865_a_at) / RFU CAMK2N1 (11719241_x_at) / Fold change /veh CAMK2N1 (11719241_x_at) / RFU C5orf56 (11738088_a_at) / Fold change /veh C5orf56 (11738088_a_at) / RFU OLFML3 (11715873_a_at) / Fold change /veh OLFML3 (11715873_a_at) / RFU LOC100653217 /// NTM (11731650_a_at) / Fold change /veh LOC100653217 /// NTM (11731650_a_at) / RFU MAPK11 (11762145_a_at) / Fold change /veh MAPK11 (11762145_a_at) / RFU FIZ1 (11724087_x_at) / Fold change /veh FIZ1 (11724087_x_at) / RFU OASL (11726364_x_at) / Fold change /veh OASL (11726364_x_at) / RFU SOX15 (11748057_x_at) / Fold change /veh SOX15 (11748057_x_at) / RFU CD79A (11719716_a_at) / Fold change /veh CD79A (11719716_a_at) / RFU HIST1H1D (11736915_at) / Fold change /veh HIST1H1D (11736915_at) / RFU CASKIN2 (11723855_a_at) / Fold change /veh CASKIN2 (11723855_a_at) / RFU LOC730098 (11760151_x_at) / Fold change /veh LOC730098 (11760151_x_at) / RFU OR4N2 (11742367_at) / Fold change /veh OR4N2 (11742367_at) / RFU PRRT2 (11749266_a_at) / Fold change /veh PRRT2 (11749266_a_at) / RFU SNX32 (11753110_a_at) / Fold change /veh SNX32 (11753110_a_at) / RFU CDHR5 (11726645_a_at) / Fold change /veh CDHR5 (11726645_a_at) / RFU RCAN1 (11760418_a_at) / Fold change /veh RCAN1 (11760418_a_at) / RFU FAM167A (11723789_a_at) / Fold change /veh FAM167A (11723789_a_at) / RFU FAM26E (11764081_at) / Fold change /veh FAM26E (11764081_at) / RFU ISYNA1 (11749810_s_at) / Fold change /veh ISYNA1 (11749810_s_at) / RFU ACY1 (11761880_at) / Fold change /veh ACY1 (11761880_at) / RFU 11764098_at / Fold change /veh 11764098_at / RFU SAMD14 (11745864_x_at) / Fold change /veh SAMD14 (11745864_x_at) / RFU NPB (11741838_a_at) / Fold change /veh NPB (11741838_a_at) / RFU TMPRSS6 (11731388_a_at) / Fold change /veh TMPRSS6 (11731388_a_at) / RFU KRTAP10-2 (11738614_at) / Fold change /veh KRTAP10-2 (11738614_at) / RFU ARHGAP8 /// PRR5-ARHGAP8 (11727945_x_at) / Fold change /veh ARHGAP8 /// PRR5-ARHGAP8 (11727945_x_at) / RFU KRTAP5-7 /// NADSYN1 (11734609_at) / Fold change /veh KRTAP5-7 /// NADSYN1 (11734609_at) / RFU RASL12 (11751679_a_at) / Fold change /veh RASL12 (11751679_a_at) / RFU CDKN2B (11736163_a_at) / Fold change /veh CDKN2B (11736163_a_at) / RFU PRF1 (11729649_at) / Fold change /veh PRF1 (11729649_at) / RFU, ZNF638 /// ZNF638-IT1 / Fold change vs veh, ZNF638 /// ZNF638-IT1 / RFU, PANK3 / Fold change vs veh, PANK3 / RFU, SH3YL1 / Fold change vs veh, SH3YL1 / RFU, ZEB2 / Fold change vs veh, ZEB2 / RFU, NRIP1 / Fold change vs veh, NRIP1 / RFU, PTTG1IP / Fold change vs veh, PTTG1IP / RFU, CAPN2 / Fold change vs veh, CAPN2 / RFU, MED14 / Fold change vs veh, MED14 / RFU, SNORA58 / Fold change vs veh, SNORA58 / RFU, C1orf63 / Fold change vs veh, C1orf63 / RFU, LRRFIP1 / Fold change vs veh, LRRFIP1 / RFU, NDUFAF7 / Fold change vs veh, NDUFAF7 / RFU, SLC12A2 / Fold change vs veh, SLC12A2 / RFU, IBTK / Fold change vs veh, IBTK / RFU, ESF1 / Fold change vs veh, ESF1 / Fold change vs veh, TMEM50B / RFU, TAOK1 / Fold change vs veh, TAOK1 / RFU, ACBD3 / Fold change vs veh, ACBD3 / RFU, TMA16 / Fold change vs veh, TMA16 / RFU, RWDD3 / Fold change vs veh, RWDD3 / RFU, BCAT1 / Fold change vs veh, BCAT1 / RFU, EDEM3 / Fold change vs veh, EDEM3 / RFU, TMEM33 / Fold change vs veh, TMEM33 / RFU, WDR75 / Fold change vs veh, WDR75 / RFU, AHCTF1 / Fold change vs veh, AHCTF1 / RFU, TFRC / Fold change vs veh, TFRC / RFU, ZDHHC17 / Fold change vs veh, ZDHHC17 / RFU, NOM1 / Fold change vs veh, NOM1 / RFU, ARL8B / Fold change vs veh, ARL8B / RFU, ZBTB11 / Fold change vs veh, ZBTB11 / RFU, TAMM41 / Fold change vs veh, TAMM41 / RFU, KIAA1704 /// LOC100996395 / Fold change vs veh, KIAA1704 /// LOC100996395 / RFU, ING1 / Fold change vs veh, ING1 / RFU, TRMT61B / Fold change vs veh, TRMT61B / RFU, FUBP3 / Fold change vs veh, FUBP3 / RFU, TP53 / Fold change vs veh, TP53 / RFU, TNKS2 / Fold change vs veh, TNKS2 / RFU, ZFP14 / Fold change vs veh, ZFP14 / RFU, ACTR2 / Fold change vs veh, ACTR2 / RFU, PPP3R1 / Fold change vs veh, PPP3R1 / RFU, PIK3R1 / Fold change vs veh, PIK3R1 / RFU, HNRNPA1 / Fold change vs veh, HNRNPA1 / RFU, RNF170 / Fold change vs veh, RNF170 / RFU, ZNF28 / Fold change vs veh, ZNF28 / RFU, RNGTT / Fold change vs veh, RNGTT / RFU, OGT / Fold change vs veh, OGT / RFU, BRD1 / Fold change vs veh, BRD1 / RFU, MARS / Fold change vs veh, MARS / RFU, ZNF655 / Fold change vs veh, ZNF655 / RFU, FAHD1 / Fold change vs veh, FAHD1 / RFU, BDP1 / Fold change vs veh, BDP1 / RFU, LRRCC1 / Fold change vs veh, LRRCC1 / RFU, ARID1A / Fold change vs veh, ARID1A / RFU, ZNF146 / Fold change vs veh, ZNF146 / RFU, ZNF330 / Fold change vs veh, ZNF330 / RFU, GPN3 / Fold change vs veh, GPN3 / RFU, C9orf123 / Fold change vs veh, C9orf123 / RFU, N4BP2L2 / Fold change vs veh, N4BP2L2 / RFU, ARFIP1 / Fold change vs veh, ARFIP1 / RFU, FAM179B / Fold change vs veh, FAM179B / RFU, BCL10 / Fold change vs veh, BCL10 / RFU, UHRF1BP1L / Fold change vs veh, UHRF1BP1L / RFU, BET1 / Fold change vs veh, BET1 / RFU, CNOT2 / Fold change vs veh, CNOT2 / RFU, ZNF268 / Fold change vs veh, ZNF268 / Fold change vs veh, ZNF507 / RFU, DGCR2 / Fold change vs veh, DGCR2 / RFU, WDSUB1 / Fold change vs veh, WDSUB1 / Fold change vs veh, HSP90B1 /// MIR3652 / RFU, ADSS / Fold change vs veh, ADSS / RFU, GK / Fold change vs veh, GK / RFU, ZNF148 / Fold change vs veh, ZNF148 / RFU, TAF9 / Fold change vs veh, TAF9 / RFU, SLC1A5 / Fold change vs veh, SLC1A5 / RFU, SLMO2 / Fold change vs veh, SLMO2 / RFU, ABCC4 / Fold change vs veh, ABCC4 / RFU, LOC101060439 /// RAP1B / Fold change vs veh, LOC101060439 /// RAP1B / RFU, RFX7 / Fold change vs veh, RFX7 / RFU, GTPBP10 / Fold change vs veh, GTPBP10 / RFU, CNEP1R1 / Fold change vs veh, CNEP1R1 / RFU, BIVM-ERCC5 /// ERCC5 / Fold change vs veh, BIVM-ERCC5 /// ERCC5 / RFU, ILF3 / Fold change vs veh, ILF3 / RFU 11762660_at / Fold change /veh 11762660_at / RFU VCAN (11757783_s_at) / Fold change /veh VCAN (11757783_s_at) / RFU DDX43 (11728927_at) / Fold change /veh DDX43 (11728927_at) / RFU KRT8 (11758188_x_at) / Fold change /veh KRT8 (11758188_x_at) / RFU NKD1 (11759106_at) / Fold change /veh NKD1 (11759106_at) / RFU SRD5A1 (11742802_a_at) / Fold change /veh SRD5A1 (11742802_a_at) / RFU TPSAB1 /// TPSB2 (11721975_s_at) / Fold change /veh TPSAB1 /// TPSB2 (11721975_s_at) / RFU GSTM3 (11746129_a_at) / Fold change /veh GSTM3 (11746129_a_at) / RFU IL23R (11737362_x_at) / Fold change /veh IL23R (11737362_x_at) / RFU TMEM51 (11727254_a_at) / Fold change /veh TMEM51 (11727254_a_at) / RFU PIWIL2 (11732686_x_at) / Fold change /veh PIWIL2 (11732686_x_at) / RFU ORM1 (11744905_x_at) / Fold change /veh ORM1 (11744905_x_at) / RFU CCDC152 (11743942_at) / Fold change /veh CCDC152 (11743942_at) / RFU ECM1 (11717891_a_at) / Fold change /veh ECM1 (11717891_a_at) / RFU IL23R (11748794_a_at) / Fold change /veh IL23R (11748794_a_at) / RFU TNFAIP8L3 (11732012_x_at) / Fold change /veh TNFAIP8L3 (11732012_x_at) / RFU MBOAT4 (11741988_at) / Fold change /veh MBOAT4 (11741988_at) / RFU 11764193_at / Fold change /veh 11764193_at / RFU TMEM53 (11763286_at) / Fold change /veh TMEM53 (11763286_at) / RFU MAGEB2 (11727129_at) / Fold change /veh MAGEB2 (11727129_at) / RFU TMEM200A (11744735_a_at) / Fold change /veh TMEM200A (11744735_a_at) / RFU CCDC152 (11751479_a_at) / Fold change /veh CCDC152 (11751479_a_at) / RFU FAM211A (11726209_a_at) / Fold change /veh FAM211A (11726209_a_at) / RFU RGS16 (11746705_a_at) / Fold change /veh RGS16 (11746705_a_at) / RFU VCAN (11755009_s_at) / Fold change /veh VCAN (11755009_s_at) / RFU RHOB (11743442_s_at) / Fold change /veh RHOB (11743442_s_at) / RFU RGS16 (11720943_a_at) / Fold change /veh RGS16 (11720943_a_at) / RFU RGS16 (11720944_at) / Fold change /veh RGS16 (11720944_at) / RFU, VPS4B / Fold change vs veh, VPS4B / RFU, CREB1 / Fold change vs veh, CREB1 / RFU, DNAJC13 / Fold change vs veh, DNAJC13 / RFU, GNAQ / Fold change vs veh, GNAQ / RFU, CDK5R1 / Fold change vs veh, CDK5R1 / RFU, ZRANB3 / Fold change vs veh, ZRANB3 / RFU, CUL4A / Fold change vs veh, CUL4A / RFU, CCNY / Fold change vs veh, CCNY / RFU, UFL1 / Fold change vs veh, UFL1 / RFU, COG3 / Fold change vs veh, COG3 / RFU, DIAPH2 / Fold change vs veh, DIAPH2 / RFU, SKA2 / Fold change vs veh, SKA2 / RFU, AFF3 / Fold change vs veh, AFF3 / RFU, LMF1 / Fold change vs veh, LMF1 / RFU, IPO11 / Fold change vs veh, IPO11 / RFU, DFFB / Fold change vs veh, DFFB / RFU, FOXP1 / Fold change vs veh, FOXP1 / RFU, CARD8 / Fold change vs veh, CARD8 / RFU, STRN3 / Fold change vs veh, STRN3 / RFU, ADK / Fold change vs veh, ADK / RFU, RASSF2 / Fold change vs veh, RASSF2 / RFU, WIPF1 / Fold change vs veh, WIPF1 / RFU, LARP1B / Fold change vs veh, LARP1B / RFU, RASA1 / Fold change vs veh, RASA1 / RFU, RB1 / Fold change vs veh, RB1 / RFU, PPFIA1 / Fold change vs veh, PPFIA1 / RFU, MAT2A / Fold change vs veh, MAT2A / RFU, CCT5 / Fold change vs veh, CCT5 / RFU, WDR92 / Fold change vs veh, WDR92 / RFU, CUX1 / Fold change vs veh, CUX1 / RFU, TTC7A / Fold change vs veh, TTC7A / RFU, TMEM135 / Fold change vs veh, TMEM135 / RFU, DEPTOR / Fold change vs veh, DEPTOR / RFU, CPM / Fold change vs veh, CPM / RFU, DNAJB6 / Fold change vs veh, DNAJB6 / RFU, CACNA2D3 / Fold change vs veh, CACNA2D3 / RFU, DTX4 / Fold change vs veh, DTX4 / RFU, TFCP2 / Fold change vs veh, TFCP2 / RFU, GMCL1 /// GMCL1P1 / Fold change vs veh, GMCL1 /// GMCL1P1 / RFU, AEBP2 / Fold change vs veh, AEBP2 / RFU, SNHG1 /// SNORD22 /// SNORD25 /// SNORD26 /// SNORD27 /// SNORD28 /// SNORD29 /// SNORD31 / Fold change vs veh, SNHG1 /// SNORD22 /// SNORD25 /// SNORD26 /// SNORD27 /// SNORD28 /// SNORD29 /// SNORD31 / Fold change (Aza/veh), C12orf56 (ProbeSet 11735607_a_at) / Fold change (ACY-1035/veh), C12orf56 (ProbeSet 11735607_a_at) / Fold change (Aza/veh), FGFR1OP (ProbeSet 11751329_s_at) / Fold change (ACY-1035/veh), FGFR1OP (ProbeSet 11751329_s_at) / Fold change (Aza/veh), VPS36 (ProbeSet 11739960_a_at) / Fold change (ACY-1035/veh), VPS36 (ProbeSet 11739960_a_at) / RFU SYPL1 (11715823_x_at) / Fold change /veh SYPL1 (11715823_x_at) / RFU IGFBP7 (11715501_s_at) / Fold change /veh IGFBP7 (11715501_s_at) / RFU REEP3 (11722064_at) / Fold change /veh REEP3 (11722064_at) / RFU IGLL1 (11728026_x_at) / Fold change /veh IGLL1 (11728026_x_at): dose or concentration left out as unconfirmed
Conditions: ProbeSet 11745789_a_at; LIST D

Nc1ccc(-c2cccs2)cc1NC(=O)c1ccc2c(c1)cc(C1CC1)n2CCN1CCOCC1 [ACY-1035]
Fold change vs veh, TMEM135: 0.97
